PMC9184653, “LDL receptor-related protein 1 (LRP1), a novel target for opening the blood-labyrinth barrier (BLB)” (Signal Transduction and Targeted Therapy, 2022)
Where no end group is shown, it is not given here.

Key:
[1] = target: T1, LRP1 (Mus musculus, UniProt Q91ZX7); assay: immunofluorescence imaging of cochleae after intravenous injection (distribution, colocalization with LRP1); format: in vivo; settings: i.v. injection
T1 construct: from tissue; host or cells: cochleae of C57BL/6J mice
Method: (§1) To classify the roles of LRP1 in the transportation of IETP2 to the inner ear, the binding affinity of IETP2 to LRP1 was first determined using biolayer interferometry (BLI, Fig. 2d). […] SV was further imaged from another view. […] The Manders’ colocalization coefficients (MCCs) of LRP1 and IETP2 in IHCs, ECs, SP cells, and SGNs were 0.71515, 0.64284, 0.56482, and 0.70552, respectively.
Four-week-old C57BL/6J mice of either sex were harvested 50 min and 2 h post-injection. Cochleae were fixed in 4% paraformaldehyde at 4 °C for 8 h and decalcified in 4% EDTA for 4 days at room temperature (RT). Parts of the cochleae were dissected into pieces containing the basilar membrane (BM), organ of Corti (OC) and stria vascularis (SV) from the apex to the hook region and then used for whole-mount immunofluorescence. Other parts of the cochleae were dehydrated using a graded sucrose solution (15% and 30%; 3 h for each grade) at RT, embedded in optimum cutting temperature (OCT) compound for 5 h at RT, frozen for 1 h at −20 °C and sectioned with a freezing microtome (Leica CM1900) at an 8 μm thickness.
For whole-mount and cross-section immunofluorescence, tissues were incubated with 0.1% Triton X-100 and blocked with 10% donkey serum for 2 h at RT before the application of the primary antibodies. […]

[2] = test system: mouse cochleae; assay: in vivo and ex vivo fluorescence imaging of cochlear uptake; settings: IETP2-Cy5.5, i.v., BALB/c nude mice
Text: To validate whether the selected IETPs could cross the BLB and to evaluate the inner ear-targeting efficacy, IETPs were covalently conjugated with the fluorescent dye Cy5.5 and intravenously injected into mice. In vivo and ex vivo fluorescence imaging of cochleae was used for evaluation. […] The IETP2 signal was visualized with in vivo fluorescence imaging (Fig. 2c). Compared to that in the brain and muscle, the signal of IETP2 detected in the cochleae was much stronger (Fig. 2c). […] Therefore, IETP2 was selected for the subsequent experiments.
BALB/c nude mice (4 weeks old, either sex) were divided into three groups (5 mice for each group). […] After the indicated times, the animals were anesthetized with isoflurane and subjected to live animal imaging (IVIS Lumina III, Caliper LifeSciences, MA, USA). The excitation/emission filter was set at 625/700 nm, and images were taken with an interval of 20 min post-injection. To validate the uptake efficiency of different IETPs, mice were sacrificed 1 h post-injection, and the cochleae were collected and imaged. […] The time-dependent uptake of IETP2 in mouse cochleae was assessed at a series of time points (1, 1.5, 2, and 2.5 h) with 3 mice at each time point for each group. Collected images were analyzed using Living Image software (IVIS Imaging System, 4.5.5).

[3] = test system: pig cochleae; assay: pig cochlear immunofluorescence imaging after intravenous injection; format: in vivo; settings: IETP2 labeled with 5-TAMRA or Cy5.5, earlobe vein injection, 2 h post-injection
Method: To further test the generality of IETP2 in large mammals, IETP2 labeled with 5-TAMRA or Cy5.5 was injected into pigs via earlobe veins. Two hours post-injection, the pigs were sacrificed (Supplementary Figs. S5 and S6, representative images of three independent experiments).
The zoomed-in OC images in the white dotted rectangle in f.
Images from the IETP2-5-TAMRA injection group. […] Images from the 5-TAMRA injection group. […] The setting parameters for the microscope (including the excitation intensity and emission gain) remained consistent throughout the experiments. c. […] Images of pig cochleae injected with free Cy5.5 (2 h after injection). (DAPI: blue; LRP1: green; phalloidin: magenta. Scale bars for the overview of porcine cochlear mid turn are 200 µm; others are 10 µm.)

[4] = target: LRP1 (Homo sapiens, UniProt Q07954); assay: biolayer interferometry (BLI) binding of IETP2 to LRP1; settings: kinetic analysis, read-out: dissociation constant (KD) of IETP2 binding to LRP1
Text: Gly-Cy5.5 served as a negative control. d Kinetic analysis of IETP2 binding to LRP1. […] Scale bars: e, j, o 100 µm, y, z 50 µm, others 10 µm.)
as §1

[5] = test system: C57BL/6J mice; assay: ototoxicity evaluation by auditory brainstem response (ABR) testing; format: in vivo, mouse; settings: 6 mice, 12 ears, 7- and 14-days post-administration
Method: Auditory brainstem response (ABR) testing was conducted in a standard soundproof chamber for animal use. Mice were anesthetized with a mixture of isoflurane (Keyue Life Science Co., Ltd.) and air via a respirator for animal use (Medical Supplies and Services Int., Ltd.) and an aquarium air pump (HAILEA, A00–5505). The final concentration of isoflurane was 2% at a flow rate of 1.5. Circulating heating pads were placed under the mice to maintain body temperature at 37 °C. ABRs were recorded with a Tucker Davis Technologies (TDT) RZ6 instrument, and the sound was delivered by a calibrated loudspeaker (TDT, MF1 2356).
For ABR testing, needle electrodes were inserted beneath the skin. The recording electrode was inserted at the vertex, the reference electrode was inserted at the pinna, and the ground electrode was inserted near the tail. The ABR stimuli were frequency-specific tone pips at frequencies from 1 kHz to 32 kHz with a duration of 5 ms (0.5 ms rise-fall delivered at 21.1/sec), and each response was amplified 10,000-fold with a filter passband of 100 Hz to 3 kHz and averaged over 1024 times. The signal started at 90 dB sound pressure level (SPL) with a step of 10 dB and decreased to 10 dB SPL at frequencies of 4, 8, 16, 24, and 32 kHz for mice. The threshold was defined as the lowest dB SPL with an identifiable and repeatable wave I for mice. […]

T1 sequence (Q91ZX7 20-4545): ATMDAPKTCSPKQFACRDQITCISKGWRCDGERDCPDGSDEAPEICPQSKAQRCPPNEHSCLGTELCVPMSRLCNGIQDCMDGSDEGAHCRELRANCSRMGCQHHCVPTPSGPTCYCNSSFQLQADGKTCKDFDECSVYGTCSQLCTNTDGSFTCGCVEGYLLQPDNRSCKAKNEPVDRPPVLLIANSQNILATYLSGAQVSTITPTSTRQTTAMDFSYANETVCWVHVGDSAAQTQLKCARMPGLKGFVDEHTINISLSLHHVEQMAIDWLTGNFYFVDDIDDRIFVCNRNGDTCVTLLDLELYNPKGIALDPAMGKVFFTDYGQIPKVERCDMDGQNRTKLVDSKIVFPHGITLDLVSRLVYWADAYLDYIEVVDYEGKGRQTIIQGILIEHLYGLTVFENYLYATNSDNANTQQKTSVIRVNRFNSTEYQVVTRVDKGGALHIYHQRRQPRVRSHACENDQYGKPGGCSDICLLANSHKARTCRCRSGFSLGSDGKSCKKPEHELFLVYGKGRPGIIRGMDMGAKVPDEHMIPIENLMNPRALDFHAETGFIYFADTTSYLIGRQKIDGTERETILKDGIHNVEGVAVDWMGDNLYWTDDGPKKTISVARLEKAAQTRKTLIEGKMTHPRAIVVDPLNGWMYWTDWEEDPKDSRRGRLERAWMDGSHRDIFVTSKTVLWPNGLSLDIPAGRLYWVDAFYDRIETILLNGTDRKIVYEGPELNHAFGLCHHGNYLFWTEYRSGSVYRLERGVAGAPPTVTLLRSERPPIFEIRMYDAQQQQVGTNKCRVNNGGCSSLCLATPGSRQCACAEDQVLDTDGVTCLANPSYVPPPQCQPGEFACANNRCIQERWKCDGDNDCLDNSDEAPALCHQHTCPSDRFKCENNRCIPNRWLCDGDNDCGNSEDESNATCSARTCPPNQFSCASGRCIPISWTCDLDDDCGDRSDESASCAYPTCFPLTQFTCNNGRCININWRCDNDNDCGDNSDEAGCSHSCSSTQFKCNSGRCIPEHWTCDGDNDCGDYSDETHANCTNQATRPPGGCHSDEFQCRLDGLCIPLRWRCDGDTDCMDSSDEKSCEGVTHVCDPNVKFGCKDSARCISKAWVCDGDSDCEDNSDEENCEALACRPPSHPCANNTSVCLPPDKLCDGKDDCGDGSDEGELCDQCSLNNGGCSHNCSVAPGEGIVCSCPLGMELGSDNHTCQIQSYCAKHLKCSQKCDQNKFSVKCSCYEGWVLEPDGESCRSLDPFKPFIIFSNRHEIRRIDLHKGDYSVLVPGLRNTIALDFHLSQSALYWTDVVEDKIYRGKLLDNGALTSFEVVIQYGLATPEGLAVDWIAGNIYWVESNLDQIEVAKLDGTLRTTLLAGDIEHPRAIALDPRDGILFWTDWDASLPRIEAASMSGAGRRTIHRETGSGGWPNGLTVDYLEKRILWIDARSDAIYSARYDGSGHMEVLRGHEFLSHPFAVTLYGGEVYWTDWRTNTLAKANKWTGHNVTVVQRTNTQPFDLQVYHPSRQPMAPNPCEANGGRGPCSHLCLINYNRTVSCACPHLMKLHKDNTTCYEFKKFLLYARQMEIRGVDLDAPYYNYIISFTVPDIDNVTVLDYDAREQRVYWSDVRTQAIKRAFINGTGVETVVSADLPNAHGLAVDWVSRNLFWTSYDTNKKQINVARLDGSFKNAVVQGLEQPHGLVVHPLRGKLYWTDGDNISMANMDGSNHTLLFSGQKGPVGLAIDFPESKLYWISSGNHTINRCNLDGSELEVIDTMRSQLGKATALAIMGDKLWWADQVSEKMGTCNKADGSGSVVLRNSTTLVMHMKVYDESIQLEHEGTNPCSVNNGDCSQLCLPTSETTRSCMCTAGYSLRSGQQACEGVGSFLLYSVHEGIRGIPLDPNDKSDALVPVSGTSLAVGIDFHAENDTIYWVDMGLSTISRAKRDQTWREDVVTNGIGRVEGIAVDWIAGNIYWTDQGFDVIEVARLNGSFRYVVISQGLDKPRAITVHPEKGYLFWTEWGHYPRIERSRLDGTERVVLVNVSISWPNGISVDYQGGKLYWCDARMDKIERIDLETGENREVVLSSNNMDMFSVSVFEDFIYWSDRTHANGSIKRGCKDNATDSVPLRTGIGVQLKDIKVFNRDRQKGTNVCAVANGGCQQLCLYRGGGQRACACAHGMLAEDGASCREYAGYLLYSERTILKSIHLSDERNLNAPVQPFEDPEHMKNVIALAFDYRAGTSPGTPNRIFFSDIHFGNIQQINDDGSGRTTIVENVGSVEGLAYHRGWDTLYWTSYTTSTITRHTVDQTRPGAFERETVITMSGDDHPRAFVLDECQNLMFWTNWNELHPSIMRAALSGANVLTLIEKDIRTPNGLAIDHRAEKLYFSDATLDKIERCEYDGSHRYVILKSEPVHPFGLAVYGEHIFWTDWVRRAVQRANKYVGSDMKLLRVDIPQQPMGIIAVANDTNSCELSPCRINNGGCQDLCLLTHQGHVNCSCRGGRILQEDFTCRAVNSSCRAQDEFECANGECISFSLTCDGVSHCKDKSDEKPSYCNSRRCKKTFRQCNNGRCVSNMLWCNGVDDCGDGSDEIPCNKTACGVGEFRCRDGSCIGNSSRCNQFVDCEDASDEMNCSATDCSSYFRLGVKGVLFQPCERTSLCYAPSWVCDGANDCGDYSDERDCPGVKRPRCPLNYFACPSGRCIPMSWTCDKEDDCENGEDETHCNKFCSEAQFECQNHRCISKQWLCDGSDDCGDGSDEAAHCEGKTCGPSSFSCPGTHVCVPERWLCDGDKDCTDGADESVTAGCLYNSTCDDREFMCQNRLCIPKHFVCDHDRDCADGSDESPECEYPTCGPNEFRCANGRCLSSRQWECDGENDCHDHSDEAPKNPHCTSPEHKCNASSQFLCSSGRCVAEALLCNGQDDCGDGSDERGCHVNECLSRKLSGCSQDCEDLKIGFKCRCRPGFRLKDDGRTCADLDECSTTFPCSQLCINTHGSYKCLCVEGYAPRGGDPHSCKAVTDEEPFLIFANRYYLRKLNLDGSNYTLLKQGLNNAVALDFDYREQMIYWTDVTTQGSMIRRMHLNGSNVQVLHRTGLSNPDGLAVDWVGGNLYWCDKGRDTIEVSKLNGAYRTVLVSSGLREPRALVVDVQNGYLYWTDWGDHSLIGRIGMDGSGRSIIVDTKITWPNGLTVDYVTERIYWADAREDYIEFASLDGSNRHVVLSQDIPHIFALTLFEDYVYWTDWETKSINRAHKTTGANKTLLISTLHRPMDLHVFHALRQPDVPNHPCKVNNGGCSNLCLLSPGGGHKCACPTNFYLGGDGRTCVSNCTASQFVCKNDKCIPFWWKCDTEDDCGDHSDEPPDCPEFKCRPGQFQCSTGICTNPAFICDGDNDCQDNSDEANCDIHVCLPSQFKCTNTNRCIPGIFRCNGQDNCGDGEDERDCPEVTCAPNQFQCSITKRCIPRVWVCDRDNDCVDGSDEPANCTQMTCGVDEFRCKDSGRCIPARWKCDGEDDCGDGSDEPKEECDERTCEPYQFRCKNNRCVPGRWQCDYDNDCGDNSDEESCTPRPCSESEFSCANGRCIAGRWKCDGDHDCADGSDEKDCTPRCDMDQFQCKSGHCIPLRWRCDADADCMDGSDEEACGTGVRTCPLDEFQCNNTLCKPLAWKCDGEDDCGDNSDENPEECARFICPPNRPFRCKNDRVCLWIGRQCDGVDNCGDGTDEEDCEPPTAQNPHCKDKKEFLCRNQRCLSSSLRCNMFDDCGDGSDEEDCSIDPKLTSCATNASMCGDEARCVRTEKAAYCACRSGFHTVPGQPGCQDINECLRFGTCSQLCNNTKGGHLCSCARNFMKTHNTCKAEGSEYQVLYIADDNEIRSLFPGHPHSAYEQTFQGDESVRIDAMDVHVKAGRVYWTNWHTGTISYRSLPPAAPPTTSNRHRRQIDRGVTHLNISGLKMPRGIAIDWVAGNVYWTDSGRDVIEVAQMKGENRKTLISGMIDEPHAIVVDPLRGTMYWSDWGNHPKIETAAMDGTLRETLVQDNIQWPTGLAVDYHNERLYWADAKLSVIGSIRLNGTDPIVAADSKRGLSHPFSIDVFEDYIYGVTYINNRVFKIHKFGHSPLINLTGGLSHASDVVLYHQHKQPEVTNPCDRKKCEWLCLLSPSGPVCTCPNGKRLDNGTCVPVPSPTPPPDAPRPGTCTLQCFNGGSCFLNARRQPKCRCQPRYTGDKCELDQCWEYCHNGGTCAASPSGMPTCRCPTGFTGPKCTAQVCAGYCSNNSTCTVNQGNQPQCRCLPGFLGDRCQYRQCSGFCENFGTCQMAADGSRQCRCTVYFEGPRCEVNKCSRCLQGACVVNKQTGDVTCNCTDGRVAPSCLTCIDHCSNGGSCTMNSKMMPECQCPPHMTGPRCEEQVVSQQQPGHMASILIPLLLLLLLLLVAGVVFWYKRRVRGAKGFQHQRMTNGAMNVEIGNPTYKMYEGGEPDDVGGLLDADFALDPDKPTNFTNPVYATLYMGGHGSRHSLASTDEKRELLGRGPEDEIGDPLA

| signal in the cochleae compared to brain and muscle [2] | transport into the inner ear of pigs [3] | Kd [4] | Compound | distribution in cochleae, free dye [1] | ototoxicity (ABR thresholds) [5] |
| --- | --- | --- | --- | --- | --- |
|  |  |  | CCN1\C(=C/C=C/C=C/C2=[N+](CCCCCC(=O)O)c3ccc4c(S(=O)(=O)O)cc(S(=O)(=O)O)cc4c3C2(C)C)C(C)(C)c2c1ccc1c(S(=O)(=O)[O-])cc(S(=O)(=O)O)cc21 [Cy5.5] | limited distribution inside blood vessels in the SV and SGN regions |  |
| much stronger | could be transported into the inner ears | 0.738 µM | TFYGGRPKRNNFLRGIRSRGD [IETP2] |  | no obvious ototoxicity |
